These results are taken from patent US20250059140A1, “C19 D[…], AND PREPARATION METHOD AND APPLICATION THEREOF” (SOUTHWEST JIAOTONG UNIVERSITY, priority 2022, published 2025).

“Also recorded” adds a separate entry of the source. Read-outs that look alike come from different tables or passages of the source.

One assay deals with isolated bullfrog hearts. The experiment in a line: Cardiotonic effect on isolated bullfrog hearts in vitro. The note with it: for Cardiotonic effect compared with the positive control: 0.005 mol/L versus positive control at 0.01 mol/L; for activation at 5000 µM: isolated bullfrog heart, tested concentration 0.005 mol/L; for Average increase rate (%) (average amplitude growth rate of the frog heart) / Results (class of heart-strengthening effect): positive control. On the procedure: The preparation of in vitro isolated bullfrog heart was carried out according to the method recorded in the literature (Ding Hong, Experimental Pharmacology, pp. 504-506, Science Publishing House, 2008) as follows. Bullfrogs weighing 150-200 g, male and female, were used herein. At room temperature, the brain and spinal cord of the bullfrogs was destroyed with a metal probe, and then the chest wall of the bullfrogs was incised to expose the heart and the right aorta and the left aorta were each threaded with a wire. The right aorta was knotted directly, and the left aorta was cut with scissors in a “V” shaped incision. A frog heart cannula containing a small amount of Ringer's solution was inserted into the ventricle. The wire of the left aorta was attached and secured to the lateral hook of the cannula. The blood in the heart tube of the bullfrogs was repeatedly flushed with fresh Ringer's solution until the fluid was clear and colorless. The heart cannula was inserted into the ventricle and perfused with Ringer's solution. The bullfrog heart cannula was fixed on the iron stand with a clamp. The muscle tension transducer was fixedly arranged under the bullfrog heart cannula, and the isolated bullfrog heart was connected to the muscle tension transducer via a bullfrog heart clip and a wire. The volume of solution in the cannula was adjusted by 1.0 mL and the subject compound or an equivalent volume of a solvent was added to the cannula. The subject compound was evaluated for cardiac activity on isolated perfused frog hearts, and heart rate and contraction amplitude were recorded.
The cardiotonic effects of compounds 1-10 provided in the present disclosure on isolated bullfrog hearts in vitro were investigated, with deacetylmaurolidine and mesaconitine as positive controls.
The tested concentration of compounds 1-10 was 0.005 mol/L, and the tested concentrations of the positive controls, i.e., mesaconitine and deacetylmaurolidine, were 0.01 mol/L and 0.0002 mol/L, respectively.

The test system of a further assay is H9c2 cells. The experiment in a line: H9c2 cell viability by MTT assay, CoCl2-induced myocardial hypoxia. The note with it: concentration of 6.25-50 M, FIG. 1A. The class given is cell-based. In general terms: Tetrazolium dyes change colour on reduction, which living cells bring about.
For assay [1], the system named is reactive oxygen species (ROS) in H9c2 cells. Put plainly: ROS detection with DCFH-DA probe in CoCl2-hypoxic H9c2 cells. Type of assay: cell-based. The note with it: 12.5, 25, 50 PM; 900 μM CoCl2; flow cytometry and fluorescence microscopy. On the procedure:
FIGS. 1D-I show fluorescence detection results of reactive oxygen species (ROS) of different groups of H9c2 cells (scale bar: 20 μm), where 1D: control group; 1E: CoCl2 group; 1F: 50 μM-Trimetazidine group; 1G: 12.5 μM-Cammaconine group; 1H: 25 μM-Cammaconine group; and 11:50 μM-Cammaconine group;
(§1) When cells experienced hypoxic injury, a large amount of reactive oxygen species (ROS) was released. DCFH-DA probe was used to label ROS in H9c2 cells, and 900 μM CoCl2 and different concentrations of cammconine (12.5, 25, 50 PM) were administered to detect the changes in ROS by flow cytometry and fluorescence inverted microscopy. […] Changes in ATPase activity after treating the cells with myocardial hypoxia with cammaconine were detected by a kit. […] Changes in the transcriptional level of the cardiomyocyte hypoxia key indicator HIF-1α and calcium cycle-related indicators were detected by qPCR.
A general note: A flow cytometer gives signals particle by particle.

The next assay concerns Na+/K+-ATPase. Put plainly: Na+/K+-ATPase activity in hypoxic cardiomyocytes (kit). Type of assay: cell-based. The note with it: concentration of 25 mol/L; CoCl2-induced hypoxia in H9c2 cells. On the procedure: (§2) FIGS. 1B-C show an effect of the compound 1 on the Na^+/K^+-ATPase specific activity and Ca^2+/Mg^2+-ATPase activity of the hypoxic cardiomyocytes, where the test is performed in triplicate; ##P<0.01, ###P<0.001, and ####P<0.0001, indicating the significant difference from the control group; and *P<0.05, **P<0.01, ***P<0.001, and ****P<0.0001, indicating the significant difference from the CoCl2 group;
as §1

The subject of another assay is Ca2+/Mg2+-ATPase. The experiment in a line: Ca2+/Mg2+-ATPase activity in hypoxic cardiomyocytes (kit). Type of assay: cell-based. As to conditions: concentration of 25 mol/L; CoCl2-induced hypoxia in H9c2 cells. On the procedure:
as §2, §1

A further assay has as its system HIF-1α. The experiment in a line: qPCR transcriptional level of HIF-1α in CoCl2-hypoxic H9c2 cells. The class given is cell-based. As to conditions: CoCl2-induced hypoxia in H9c2 cells, FIG. 2A. On the procedure: (§3) In FIGS. 2A-F, the detection is performed in triplicate; ##P<0.01, ###P<0.001, and ####P<0.0001, indicating the significant difference from the control group; and *P<0.05, **P<0.01, ***P<0.001, and ****P<0.0001, indicating the significant difference from the CoCl2 group.
as §1
On the technique in general: Quantitative PCR measures a nucleic acid by following its amplification.

The test system of the next assay is DHPR. Put plainly: qPCR transcriptional level of DHPR in CoCl2-hypoxic H9c2 cells. The class given is cell-based. As to conditions: CoCl2-induced hypoxia in H9c2 cells, FIG. 2B. On the procedure: (§4) FIGS. 2B-F show transcriptional level results (detected by q-PCR) of calcium channel-related indicators in cardiomyocytes, where 2B: DHPR; 2C: RyR2; 2D: SERCA2a; 2E: NCX; and 2F: NHE.
as §3, §1

A further assay has as its system RyR2. The experiment in a line: qPCR transcriptional level of RyR2 in CoCl2-hypoxic H9c2 cells. The note with it: CoCl2-induced hypoxia in H9c2 cells, FIG. 2C. The class given is cell-based. On the procedure: as §4, §3, §1
The next assay has as its system SERCA2a. Put plainly: qPCR transcriptional level of SERCA2a in CoCl2-hypoxic H9c2 cells. The note with it: CoCl2-induced hypoxia in H9c2 cells, FIG. 2D. The class given is cell-based. Here is the method:
as §4, §3, §1

A further assay concerns NCX. The experiment in a line: qPCR transcriptional level of NCX in CoCl2-hypoxic H9c2 cells. Type of assay: cell-based. The note with it: CoCl2-induced hypoxia in H9c2 cells, FIG. 2E. Here is the method: as §4, §3, §1
A further assay deals with NHE. The experiment in a line: qPCR transcriptional level of NHE in CoCl2-hypoxic H9c2 cells. As to conditions: CoCl2-induced hypoxia in H9c2 cells, FIG. 2F. The class given is cell-based. Here is the method: as §4, §3, §1
The mark [2] stands for this setting: read-out: Average increase rate (%) (average amplitude growth rate of the frog heart).
The mark [3] stands for this setting: read-out: Results (class of heart-strengthening effect).
The mark [4] stands for this setting: tested concentration 0.01 mol/L.
Setting [5] is: tested concentration 0.0002 mol/L.

In the case of `CCN1C[C@]2(CO)CC[C@H](OC)[C@@]34C5C[C@@H]6[C@@H](OC)C[C@@](O)(C5[C@H]6O)C(CC23)[C@@H]14` (stereo partly drawn) [Compound 1, cammaconine], the “Cardiotonic effect compared with the positive control” value in the assay on isolated bullfrog hearts was “better cardiotonic effect; also recorded: significantly enhanced”. The activation at 5000 µM with isolated bullfrog hearts (setting [2]) is 118%; in the assay with isolated bullfrog hearts (setting [3]), more than 60%. In addition, the “Cardioprotective effect on H9c2 cells (cell viability, MTT)” value in the assay on H9c2 cells is “certain cardioprotective effects”. The “Levels of ROS in H9c2 cells” value in assay [1] is on record as “significantly reduced”. In addition, the “Na+/K+-ATPase activity” value with Na+/K+-ATPase was “increase the enzyme activity”. Besides, the “Ca2+/Mg2+-ATPase activity” value with Ca2+/Mg2+-ATPase is listed as “increase the enzyme activity”. Also, the “mRNA transcriptional level of HIF-1α” value with HIF-1α was “decreased”. The “mRNA level of DHPR” value in the assay with DHPR is given as “decreased”. Moreover, the “mRNA level of RyR2” value in the assay with RyR2 was “decreased”. Moreover, the “mRNA level of SERCA2a” value with SERCA2a is on record as “decreased”. Further, the “mRNA level of NCX” value in the assay with NCX is “decreased”. Also, in the assay on NHE, the “mRNA level of NHE” value is reported as “decreased”.

As for `CO[C@H]1C[C@@]2(O)C3C(C[C@H]1[C@@H]3O)[C@]13C4CC2[C@H]1N(C)C[C@]4(CO)CC[C@@H]3OC` (stereo partly drawn) [Compound 2, N-deethyl-N-methyl cammaconine], the “Cardiotonic effect compared with the positive control” value with isolated bullfrog hearts is given as “better cardiotonic effect; also recorded: significantly enhanced”. The results for the activation at 5000 µM in the assay with isolated bullfrog hearts (setting [2]) and with isolated bullfrog hearts (setting [3]) were 159% and more than 60%, respectively.

For `CO[C@H]1C[C@@]2(O)C3C(C[C@H]1[C@@H]3O)[C@]13C4CC2[C@H]1NC[C@]4(CO)CC[C@@H]3OC` (stereo partly drawn) [Compound 3, N-deethyl cammaconine], the figures for the activation at 5000 µM in the assay on isolated bullfrog hearts (setting [2]) and in the assay on isolated bullfrog hearts (setting [3]) were 36.8% and 31 to 60%, respectively.

For the compound `CCN1C[C@]2(CO)CC[C@H](OC)[C@@]34C5C[C@@H]6[C@@H](OC)C[C@@](O)(C5[C@H]6OC)C(CC23)[C@@H]14` (stereo partly drawn) [Compound 4, scaconine], in the assay on isolated bullfrog hearts, the “Cardiotonic effect compared with the positive control” value is “better cardiotonic effect; also recorded: significantly enhanced”. Further, the activation at 5000 µM with isolated bullfrog hearts (setting [2]) is 156%; in the assay with isolated bullfrog hearts (setting [3]) it was more than 60%.

In the case of `CCN1C[C@]2(CO)CC[C@H](OC)[C@@]34C5C[C@@H]6[C@@H](OC)C[C@@](OC)(C5[C@H]6O)C(CC23)[C@@H]14` (stereo partly drawn) [Compound 5, 8-O-methyl cammaconine], the activation at 5000 µM in the assay with isolated bullfrog hearts (setting [2]) was 33.6%; with isolated bullfrog hearts (setting [3]), 31 to 60%.

Take `CCN1C[C@]2(CO)CC[C@H](OC)[C@@]34C5C[C@@H]6[C@@H](OC)C[C@@](OC)(C5[C@H]6OC)C(CC23)[C@@H]14` (stereo partly drawn) [Compound 6, 8,14-O-dimethyl cammaconine]: the activation at 5000 µM with isolated bullfrog hearts (setting [2]) was 31.2%; in the assay with isolated bullfrog hearts (setting [3]) it was 31 to 60%.

Consider `CCN1C[C@]2(CO)CC[C@H](OC)[C@@]34C5C[C@H]6[C@H](O)C5[C@](O)(C[C@@H]6O)C(CC23)[C@@H]14` (stereo partly drawn) [Compound 7, 16-demethyl cammaconine], for which the “Cardiotonic effect compared with the positive control” value in the assay on isolated bullfrog hearts was “better cardiotonic effect; also recorded: significantly enhanced”. In addition, the activation at 5000 µM is 75.2% in the assay on isolated bullfrog hearts (setting [2]) and more than 60% with isolated bullfrog hearts (setting [3]).

As to `CCO[C@]12C[C@H](OC)[C@H]3CC(C1[C@H]3O)[C@]13C4CC2[C@H]1N(CC)C[C@]4(CO)CC[C@@H]3OC` (stereo partly drawn) [Compound 8, 8-O-ethyl cammaconine], the activation at 5000 µM was 57.2% in the assay on isolated bullfrog hearts (setting [2]) and 31 to 60% in the assay on isolated bullfrog hearts (setting [3]).

For the compound `CCO[C@]12C[C@H](OC)[C@H]3CC(C1[C@H]3OC)[C@]13C4CC2[C@H]1N(CC)C[C@]4(CO)CC[C@@H]3OC` (stereo partly drawn) [Compound 9, 8-O-ethyl, 14-O-methyl cammaconine], the activation at 5000 µM was 21.8% in the assay with isolated bullfrog hearts (setting [2]) and 16 to 30% in the assay on isolated bullfrog hearts (setting [3]).

As to `CO[C@H]1C[C@@]2(O)C3C(C[C@H]1[C@@H]3OC)[C@]13C4CC2[C@H]1N(C)C[C@]4(CO)CC[C@@H]3OC` (stereo partly drawn) [Compound 10, N-deethyl-N-methyl 14-O-methyl cammaconine], the “Cardiotonic effect compared with the positive control” value in the assay on isolated bullfrog hearts is listed as “better cardiotonic effect; also recorded: significantly enhanced”. The results for the activation at 5000 µM in the assay on isolated bullfrog hearts (setting [2]) and in the assay on isolated bullfrog hearts (setting [3]) were 148% and more than 60%, respectively.

On to `COC[C@]12CN(C)[C@@H]3[C@@H]4[C@H](OC)[C@H]1[C@@]3([C@@H](OC)C[C@H]2O)[C@@H]1C[C@@]2(O)[C@H](OC(=O)c3ccccc3)[C@@H]1[C@]4(OC(C)=O)[C@@H](O)[C@@H]2OC` [Mesaconitine, mesaconitine, reference compound], for which, in the assay with isolated bullfrog hearts (setting [4]), the “Average increase rate (%) (average amplitude growth rate of the frog heart)” value is 70.7% and the “Results (class of heart-strengthening effect)” value is given as “Strong (>60% (+++, strong))”.

As to “deacetylmaurolidine [reference compound]”, in the assay with isolated bullfrog hearts (setting [5]), the “Average increase rate (%) (average amplitude growth rate of the frog heart)” value turned out to be 61% and the “Results (class of heart-strengthening effect)” value is on record as “Strong (>60% (+++, strong))”.
